Data as given in patent US20100305215A1, “DERMAL REGENERATION ENHANCER” (JAPAN SCIENCE AND TECHNOLOGY AGENCY, priority 2005, published 2010).

Tested on: skin of colored guinea pigs having melanin pigment-producing cells
Experiment: Dermal regeneration enhancing action of liquid crystal versus its constituting components on guinea pig skin (Example 4)
Assay type: in vivo, guinea pigs (Weiser Maples)
Conditions: 30 mg on 2 cm×2 cm shaved back; each sample solely applied
Description: Back of colored guinea pigs having melanin pigment-producing cells (Weiser Maples; six weeks age; male) was shaved, the shaved part was washed with lukewarm water and 30 mg of the above lyotropic liquid crystal was applied to an area of 2 cm×5 cm thereof. After 2 days from the application date under irradiation with any of UVA, UVB and UVA+UVB, skin of the part to which the lyotropic liquid crystal was applied was collected and the slice was fixed with formalin, embedded in paraffin and stained by a Fontana-Masson method where melanin pigment was stained out in black to evaluate the dermal regeneration enhancing action.
Back of colored guinea pigs having melanin pigment-producing cells (Weiser Maples, five weeks age, male) was shaved, the shaved part was washed with lukewarm water, each 30 mg of the four kinds of samples of the lyotropic crystal of (A) of Example 1 and the constituting components thereof—surfactant, oil and polyhydric alcohol—was applied to an area of 2 cm×2 cm thereof and the dermal regeneration enhancing action was evaluated by the method mentioned in (A) of Example 1. Cross-sectional pictures of the skin to which each of the samples was applied are shown in FIG. 6 together with the cross-sectional picture of the skin to which nothing was applied.

SMILES	dermal regeneration enhancing action
CC(C)CCCC(C)CCCC(C)CCCCC(C)CCCC(C)CCCC(C)C (centres unmarked) [oil, squalane]	no dermal regeneration enhancing action was noted
OCC(O)CO [polyhydric alcohol, glycerol]	no dermal regeneration enhancing action was noted
